“And” between values parts separate entries of the source, which are not always exact repeats. Identical values can stand only once.
Assays:
[1] = target: HIV-1 integrase (IN), 3′-processing (Human immunodeficiency virus type 1 group M subtype B, UniProt P12497); test: biochemical
[2] = target: HIV-1 integrase (IN), strand transfer, wild-type (Human immunodeficiency virus type 1 group M subtype B, UniProt P12497); test: biochemical; settings: Strand transfer IC50, in vitro IN assays as described in reference [4]
[3] = tested on: HIV-1 integrase Y143R mutant; assay type: biochemical
[4] = tested on: HIV-1 vector with N155H integrase; assay type: cell-based; settings: antiviral, cultured cells
[5] = tested on: HIV-1 integrase N155H mutant; assay type: biochemical
[6] = tested on: HIV-1 vector with G140S/Q148H integrase; assay type: cell-based; settings: antiviral, mutant vector in cultured cells
[7] = tested on: cultured cells
[8] = tested on: HIV-1 vector with Y143R integrase; assay type: cell-based; settings: antiviral, cultured cells
[9] = 3′-Processing IC50, in vitro IN assays as described in reference [4]

SMILES | IC50 [1, 9] | further results
O=C1c2ccc(O)c(O)c2C(=O)N1Cc1ccc(F)cc1 [3-2, reference compound] | 8 ± 3 µM | 
O=C1c2c(c3n(c(=O)c2O)CCCCC3)C(=O)N1Cc1ccc(F)c(F)c1 [4c-3] | > 111 µM | 
O=C1c2ccc(O)c(O)c2C(=O)N1Cc1ccc(F)c(Cl)c1 [3-1, reference compound] | 14 ± 3 µM | IC50 [2]: 0.17 ± 0.06 µM
O=C1c2ccc(O)c(O)c2C(=O)N1Cc1cccc(Cl)c1F [3-4, reference compound] | 25 ± 16 µM | 
O=C1c2ccc(O)c(O)c2C(=O)N1Cc1ccc(F)c(F)c1 [3-3, reference compound] | 27 ± 1 µM | 
O=C1c2c(c3n(c(=O)c2O)CCCCC3)C(=O)N1Cc1ccc(F)cc1 [4c-2] | > 111 µM | 
O=C1c2c(c3n(c(=O)c2O)CCCCC3)C(=O)N1Cc1ccc(F)c(Cl)c1 [4c-1] | > 111 µM | 
O=C1c2c(c3n(c(=O)c2O)CCCCC3)C(=O)N1Cc1cccc2ccccc12 [4c-6] | > 111 µM | 
O=C1c2ccc(O)c(O)c2C(=O)N1Cc1cccc2ccccc12 [3-6] | 150 ± 36 µM | IC50 [2]: 0.7 µM and 0.72 µM
O=C1c2c(c3n(c(=O)c2O)CCC3)C(=O)N1Cc1ccc(F)c(Cl)c1 [4a-1] | > 111 µM | 
O=C1c2c(c3n(c(=O)c2O)CCCCCC3)C(=O)N1Cc1ccc(F)c(Cl)c1 [4d-1] | > 111 µM | 
O=C1c2c(c3n(c(=O)c2O)CCCCC3)C(=O)N1Cc1cccc(Cl)c1F [4c-4] | > 111 µM | 
O=C1c2c(c3n(c(=O)c2O)CCCCC3)C(=O)N1Cc1ccccc1 [4c-5] | > 111 µM | IC50 [2]: > 111 µM
O=C1c2ccc(O)c(O)c2C(=O)N1Cc1ccccc1 [3-5] | 72 ± 23 µM | IC50 [2]: 0.4 µM and 0.39 µM
O=C1c2c(c3n(c(=O)c2O)CCCC3)C(=O)N1Cc1ccc(F)c(Cl)c1 [4b-1] | > 111 µM | fold less sensitive than Raltegravir to the Y143R mutation [3]: more than 10 fold; fold lower loss of potency compared to Raltegravir, N155H vector [4]: 10 fold; fold less sensitive than Raltegravir to the N155H mutation [5]: more than 2 fold; times less sensitive than Raltegravir to the G140S/Q148H mutation [6]: 200 times; IC50 ([1]; 3′-P IC50, metal cofactor Mg2+): > 111 µM; cytotoxicity fold lower than 3-1 [7]: 30 fold; fold lower loss of potency compared to Raltegravir, Y143R vector [8]: 10 fold

Source: paper PMC3085635 (Bioorganic & medicinal chemistry letters, 2011)
